Data published in patent US7358250B2, “Pyrrolo[2,3-d]pyrimidines that modulate ACK1 activity” (Amgen Inc., priority 2004, dated 2008).

Assays:
ACK1 = target: T1, ACK1 (Homo sapiens, UniProt Q07912); experiment: ACK1 Enzymatic Assay; format: biochemical; details: 5 μM ATP, ELISA phosphotyrosine readout
T1 construct: a fusion of an N-terminal (His)6 Tag with amino acids 117 to 489 of ACK1; (His)6 (N); made in house; host or cells: baculovirus infected Hi-5 insect cells
Protocol: IC50 values of inventive compounds may be assessed as follows. […] The substrate of for the reaction is ACK1 itself (autophosphorylation) and poly-Glutamic acid-Tyrosine (PGT (4:1), Sigma catalog #PO275). The PGT is coated to Nunc 96 well plates at 80 μg/mL overnight at 4° C. […] Test compounds are added in 10 μL DMSO, and the reaction is started by addition of 10 μL kinase in assay buffer. The reaction proceeds 2 h at room temperature. Next the plates are washed four times, and the level of tyrosine phosphorylation in a given well is quantified by standard ELISA assay utilizing a phosphotyrosine antibody (PY20, Pierce).

C8 cells = experiment: ACK1 Cell Based Assay, test (C8) cell line; details: 0.125% FCS, 20 to 24 h; for IC50: cell viability (Cytotox One kit)
Protocol: (§1) The ACK1 cell based assay is designed to find inhibitors of ACK1 kinase activity which would be prime candidates for the development of anticancer drugs. […] This dependency was confirmed utilizing ACK1 specific siRNAs.
(§2) For this assay, test (C8) and control (HeLa) cell lines are seeded in 96 well tissue culture plates (BD Falcon) at a density of 2 to 4×10^4 in DMEM/F12 (C8) or DMEM (HeLa) with 0.125% FCS in the presence of ACK1 inhibitors (final DMSO concentration is 0.5%, all tissue culture media are from Cellgro). After 20 to 24 h incubation at 37° C. and 5% CO2, cell viability is determined using the Cytotox One kit (Promega) according to the manufacturer's instructions.

LCK = target: T2, LCK (Homo sapiens, UniProt P06239); experiment: LCK-Homogeneous Time Resolved Fluorescent (HTRF) Kinase Assay; format: biochemical; details: LCK KD GST (225-509)
T2 construct: 15 μL of LCK KD GST (225-509) for a final volume of 40 μL; GST
T2 sequence (P06239 225-509): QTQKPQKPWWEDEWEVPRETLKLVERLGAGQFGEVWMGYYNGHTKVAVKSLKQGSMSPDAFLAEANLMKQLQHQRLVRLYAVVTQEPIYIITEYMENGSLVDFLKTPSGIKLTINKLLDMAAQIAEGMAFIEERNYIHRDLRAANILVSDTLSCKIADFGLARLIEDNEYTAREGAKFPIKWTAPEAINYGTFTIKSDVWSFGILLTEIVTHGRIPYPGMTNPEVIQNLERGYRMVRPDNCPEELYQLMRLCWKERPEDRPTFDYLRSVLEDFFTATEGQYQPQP
Protocol: The LCK HTRF assay begins with LCK in the presence of ATP phosphorylating the biotinylated peptide Gastrin. The reaction incubates for 90 min. To quench the assay detection reagents are added which both stop the reaction by diluting out the enzyme and chelating the metals due to the presence of EDTA. Once the detection reagents are added the assay incubates for 30 min to allow for equilibration of the detection reagents.
The final concentration of gastrin is 1.2 μM. The final concentration of ATP is 0.5 μM (Km app=[…]) and the final concentration of LCK is […]. Buffer conditions are as follows: 50 mM HEPES pH 7.5, 50 mM NaCl, 20 mM MgCl, 5 mM MnCl, 2 mM DTT, 0.05% BSA.
The assay is quenched and stopped with 160 μL of detection reagent. Detection reagents are as follows: Buffer made of 50 mM Tris, pH 7.5, 100 mM NaCl, 3 mM EDTA, 0.05% BSA, 0.1% Tween20. Added to this buffer prior to reading is Steptavidin allophycocyanin (SA-APC) at a final conc in the assay of 0.0004 mg/mL, and europilated anti-phosphotyrosine Ab (Eu-anti-PY) at a final conc of 0.025 nM.
The assay plate is read in either a Discovery or a RubyStar. The eu-anti-PY is excited at 320 nm and emits at 615 nm to excite the SA-APC which in turn emits at 655 nm. The ratio of SA-APC at 655 nm (excited due to close proximity to the Eu-anti-PY because of phosphorylation of the peptide) to free Eu-anti-PY at 615 nm will give substrate phosphorylation.

HeLa cells = experiment: ACK1 Cell Based Assay, control (HeLa) cell line; details: 0.125% FCS, 20 to 24 h
Protocol: as §1, §2

T1 sequence (Q07912 117-489): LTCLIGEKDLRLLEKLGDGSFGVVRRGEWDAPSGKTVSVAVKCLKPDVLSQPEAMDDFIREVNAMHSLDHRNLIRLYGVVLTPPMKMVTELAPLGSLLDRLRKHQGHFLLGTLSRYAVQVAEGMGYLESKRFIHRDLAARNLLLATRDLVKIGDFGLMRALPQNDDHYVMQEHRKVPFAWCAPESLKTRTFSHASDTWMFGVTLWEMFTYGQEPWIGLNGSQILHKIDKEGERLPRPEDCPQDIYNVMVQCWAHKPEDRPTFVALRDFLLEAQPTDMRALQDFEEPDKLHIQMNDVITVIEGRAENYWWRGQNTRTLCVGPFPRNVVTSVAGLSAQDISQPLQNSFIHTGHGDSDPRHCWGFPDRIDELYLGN

Structure (SMILES) | Ki (ACK1) [nM] | Ki (LCK) [nM] | IC50 (C8 cells) [nM] | cytotoxicity to C8 cells (C8 cells) | cytotoxic effect on HeLa cells (HeLa cells)
CCOC(=O)CN(CC(=O)OCC)S(=O)(=O)c1ccc(-c2[nH]c3ncnc(NCC4CCCO4)c3c2-c2ccccc2)cc1 (centres unmarked) [Example 14, [Ethoxycarbonylmethyl-(4-{5-phenyl-4-[(tetrahydrofuran-2-ylmethyl)-amino]-7H-pyrrolo[2,3-d]pyrimidin-6-yl}-benzenesulfonyl)-amino]-acetic acid ethyl ester] | < 10 | 10 to 100 | > 100 | – | –
NS(=O)(=O)c1ccc(-c2[nH]c3ncnc(NC[C@@H]4CCCO4)c3c2-c2ccccc2)cc1 [Example 15, 4-{5-Phenyl-4-[(tetrahydrofuran-2-ylmethyl)-amino]-7H-pyrrolo[2,3-d]pyrimidin-6-yl}-benzenesulfonamide] | < 10 | 10 to 100 | > 100 | – | –
O=S(=O)(NCC(O)CO)c1ccc(-c2[nH]c3ncnc(NC[C@@H]4CCCO4)c3c2-c2ccccc2)cc1 (some centres unmarked) [Example 16, N-(2,3-Dihydroxy-propyl)-4-{5-phenyl-4-[(tetrahydrofuran-2-ylmethyl)-amino]-7H-pyrrolo[2,3-d]pyrimidin-6-yl}-benzenesulfonamide] | < 10 | < 10 | > 100 | – | –
O=C(O)CNS(=O)(=O)c1ccc(-c2[nH]c3ncnc(NC[C@@H]4CCCO4)c3c2-c2ccccc2)cc1 [Example 17] | < 10 | 10 to 100 | > 100 | – | –
O=S(=O)(NCCO)c1ccc(-c2[nH]c3ncnc(NC[C@@H]4CCCO4)c3c2-c2ccccc2)cc1 [Example 18, N-(2-Hydroxy-ethyl)-4-{5-phenyl-4-[(tetrahydro-furan-2-ylmethyl)-amino]-7H-pyrrolo[2,3-d]pyrimidin-6-yl}-benzenesulfonamide] | < 10 | < 10 | > 100 | – | –
O=S(=O)(c1ccc(-c2[nH]c3ncnc(NC[C@@H]4CCCO4)c3c2-c2ccccc2)cc1)N(CCO)CCO [Example 19, N,N-Bis-(2-hydroxyethyl)-4-{5-phenyl-4-[(tetrahydro-furan-2-ylmethyl)-amino]-7H-pyrrolo[2,3-d]pyrimidin-6-yl}-benzenesulfonamide] | < 10 | < 10 | > 100 | – | –
CN(C)CCOc1ccc(-c2[nH]c3ncnc(NC[C@@H]4CCCO4)c3c2-c2ccccc2)cc1 [Example 20, {6-[4-(2-Dimethylamino-ethoxy)-phenyl]-5-phenyl-7H-pyrrolo[2,3-d]pyrimidin-4-yl}-(tetrahydro-furan-2-ylmethyl)-amine] | < 10 | < 10 | 10 to 100 | cytotoxic | no cytotoxic effect
c1ccc(-c2c(-c3ccc(OCCN4CCOCC4)cc3)[nH]c3ncnc(NCC4CCCO4)c23)cc1 (centres unmarked) [Example 21, {6-[4-(2-Morpholin-4-yl-ethoxy)-phenyl]-5-phenyl-7H-pyrrolo[2,3-d]pyrimidin-4-yl}-(tetrahydro-furan-2-ylmethyl)-amine] | < 10 | < 10 | 10 to 100 | – | –
c1ccc(-c2c(-c3ccc(OCCN4CCCC4)cc3)[nH]c3ncnc(NCC4CCCO4)c23)cc1 (centres unmarked) [Example 22, {5-Phenyl-6-[4-(2-pyrrolidin-1-yl-ethoxy)-phenyl]-7H-pyrrolo[2,3-d]pyrimidin-4-yl}-(tetrahydrofuran-2-ylmethyl)-amine] | < 10 | < 10 | 10 to 100 | – | –
O=C1CCCN1CCOc1ccc(-c2[nH]c3ncnc(NCC4CCCO4)c3c2-c2ccccc2)cc1 (centres unmarked) [Example 23, 1-[2-(4-{5-Phenyl-4-[(tetrahydrofuran-2-ylmethyl)-amino]-7H-pyrrolo[2,3-d]pyrimidin-6-yl}-phenoxy)-ethyl]-pyrrolidin-2-one] | < 10 | < 10 | 10 to 100 | – | –
CN1CCCC1CCOc1ccc(-c2[nH]c3ncnc(NCC4CCCO4)c3c2-c2ccccc2)cc1 (centres unmarked) [Example 24, (6-{4-[2-(1-Methyl-pyrrolidin-2-yl)-ethoxy]-phenyl}-5-phenyl-7H-pyrrolo[2,3-d]pyrimidin-4-yl)-(tetrahydrofuran-2-ylmethyl)-amine] | 10 to 100 | 10 to 100 | > 100 | – | –
N#CCOc1ccc(-c2[nH]c3ncnc(NC[C@@H]4CCCO4)c3c2-c2ccccc2)cc1 [Example 25, (4-{5-Phenyl-4-[(tetrahydrofuran-2-ylmethyl)-amino]-7H-pyrrolo[2,3-d]pyrimidin-6-yl}-phenoxy)-acetonitrile] | < 10 | 10 to 100 | 10 to 100 | – | –
CNC(=O)c1ccc(-c2[nH]c3ncnc(NC[C@@H]4CCCO4)c3c2-c2ccccc2)cc1 [Example 26, N-Methyl-4-{5-phenyl-4-[(tetrahydrofuran-2-ylmethyl)-amino]-7H-pyrrolo[2,3-d]pyrimidin-6-yl}-benzamide] | < 10 | < 10 | 10 to 100 | – | –
CN(C)C(=O)c1ccc(-c2[nH]c3ncnc(NCC4CCCO4)c3c2-c2ccccc2)cc1 (centres unmarked) [Example 27, N,N-Dimethyl-4-{5-phenyl-4-[(tetrahydrofuran-2-ylmethyl)-amino]-7H-pyrrolo[2,3-d]pyrimidin-6-yl}-benzamide] | < 10 | < 10 | 10 to 100 | – | –

Continued, in another order:

Ki (ACK1) [nM] | Ki (LCK) [nM] | Structure (SMILES) | IC50 (C8 cells) [nM] | cytotoxicity to C8 cells (C8 cells) | cytotoxic effect on HeLa cells (HeLa cells)
< 10 | > 100 | O=C(c1ccc(-c2[nH]c3ncnc(NCC4CCCO4)c3c2-c2ccccc2)cc1)N1CCOCC1 (centres unmarked) [Example 28, Morpholin-4-yl-(4-{5-phenyl-4-[(tetrahydrofuran-2-ylmethyl)-amino]-7H-pyrrolo[2,3-d]pyrimidin-6-yl}-phenyl)-methanone] | 10 to 100 | – | –
< 10 | < 10 | O=C(NC1CC1)c1ccc(-c2[nH]c3ncnc(NCC4CCCO4)c3c2-c2ccccc2)cc1 (centres unmarked) [Example 29, N-Cyclopropyl-4-{5-phenyl-4-[(tetrahydrofuran-2-ylmethyl)-amino]-7H-pyrrolo[2,3-d]pyrimidin-6-yl}-benzamide] | 10 to 100 | – | –
< 10 | < 10 | COCCNC(=O)c1ccc(-c2[nH]c3ncnc(NCC4CCCO4)c3c2-c2ccccc2)cc1 (centres unmarked) [Example 30, N-(2-Methoxyethyl)-4-{5-phenyl-4-[(tetrahydrofuran-2-ylmethyl)-amino]-7H-pyrrolo[2,3-d]pyrimidin-6-yl}-benzamide] | 10 to 100 | – | –
< 10 | < 10 | O=C(NCCN1CCOCC1)c1ccc(-c2[nH]c3ncnc(NCC4CCCO4)c3c2-c2ccccc2)cc1 (centres unmarked) [Example 31, N-(2-Morpholin-4-yl-ethyl)-4-{5-phenyl-4-[(tetrahydrofuran-2-ylmethyl)-amino]-7H-pyrrolo[2,3-d]pyrimidin-6-yl}-benzamide] | > 100 | – | –
< 10 | < 10 | CN(C)CCNC(=O)c1ccc(-c2[nH]c3ncnc(NCC4CCCO4)c3c2-c2ccccc2)cc1 (centres unmarked) [Example 32, N-(2-Dimethylamino-ethyl)-4-{5-phenyl-4-[(tetrahydrofuran-2-ylmethyl)-amino]-7H-pyrrolo[2,3-d]pyrimidin-6-yl}-benzamide] | 10 to 100 | – | –
10 to 100 | < 10 | CN(C)CCOc1ccc(-c2[nH]c3ncnc(NCC4CCC4)c3c2-c2ccccc2)cc1 [Example 34, Cyclobutylmethyl-{6-[4-(2-dimethylamino-ethoxy)-phenyl]-5-phenyl-7H-pyrrolo[2,3-d]pyrimidin-4-yl}-amine] | > 100 | – | –
